{"source": "patent US20140329868A1", "about": "“METHODS FOR TREATING HYPERTENSION” (TAKEDA PHARMACEUTICALS U.S.A., INC., priority 2005, published 2014)", "key": {"[1]": {"test_system": "subjects having a systolic BP≧160 mmHg or diastolic BP≧95 mmHg (elevated blood pressure)", "assay": "Example 3: blood pressure change in subjects with elevated blood pressure, none taking angiotensin antagonists (two double-blind studies)", "type": "in vivo, human", "procedure": "None of these subjects were taking any angiotensin antagonists, but might have been taking some other type of antihypertensive drug at the baseline (start) of the study. These 187 subjects were part of two (2) DB studies. One study was of 28 weeks in duration during which subjects received 80 mg, 120 mg or 240 mg QD of febuxostat or placebo or allopurinol 300 or 100 mg QD, depending on the subject's renal function. The second study was of 52 weeks in duration during which subjects received 80 mg or 120 mg QD of febuxostat or allopurinol 300 mg QD. Of these 187 subjects, all completed 4 weeks of treatment and 132 completed 28 weeks of treatment. A total of 52 weeks of treatment was completed by 15 subjects in the febuxostat 80 mg QD group, 11 in the febuxostat 120 mg QD group and 22 in the allopurinol 300/100 mg QD group. Because of the shorter duration of one of the 2 DB studies, no subject in the placebo and febuxostat 240 mg QD groups were treated for 52 weeks."}, "[2]": {"test_system": "oxonic acid (OA)-induced hyperuricemic model in Sprague-Dawley rats", "assay": "Example 4: plasma uric acid in normal and OA-dosed rats", "type": "in vivo", "procedure": "Materials and Methods. To produce hyperuricemia, rats received OA (Sigma, St Louis Mo., USA) 750 mg/kg body weight daily by gastric gavage. To investigate the treatment effect of febuxostat (also referred to herein as “Fx”), the drug was administered in drinking water at 50 mg/L (approximately 5-6 mg/kg/day) four weeks after OA dosing while the respective controls received 5.84 mg/L of NaCl in drinking water (to maintain a salt concentration equivalent to the Febuxostat-containing water). […] Body weight, food and water intakes were measured daily. Systolic blood pressure, obtained in conscious rats by a tail cuff sphygmomanometer, and plasma uric acid were measured in all animals at baseline and at the end of four and eight weeks. […]\nEvaluation. Food and water intake were determined daily. Systolic blood pressure (hereinafter “SBP”) was measured in conscious animals by a tail cuff sphygmomanometer using an automated system (XBP-100, Kent Scientific Co, USA). […] Plasma UA, insulin and triglycerides were quantified using commercial kits (Diagnostic Chemicals Ltd, USA; Crystalchem, USA and Spinreact, Spain, respectively).\nStatistical Analysis. Values were expressed as mean±standard error of the mean (hereinafter “SEM”). In the study, values from the respective four treatment groups were analyzed by one-way analysis of variance (hereinafter “ANOVA”). […]"}, "[3]": {"test_system": "subjects having a systolic BP≧160 mmHg or diastolic BP≧95 mmHg (elevated blood pressure)", "assay": "Example 1: blood pressure change in subjects with elevated blood pressure, none taking antihypertensive agents at baseline (two double-blind studies)", "type": "in vivo, human", "procedure": "A total of 103 subjects (9 in the placebo group, 26 in each the 2-[3-cyano-4-(2-methylpropoxy)phenyl]-4-methylthiazole-5-carboxylic acid (hereinafter referred to as “febuxostat”) 80 mg and 120 mg once daily (hereinafter referred to as “QD”) groups, 10 in the febuxostat 240 mg QD group and 32 in the 4-hydroxy-3,4-pyrazolopyrimidine (hereinafter referred to as “allopurinol”) 300/100 mg QD group), having a systolic BP≧160 mmHg or diastolic BP≧95 mmHg, and thus considered to have “elevated blood pressure”, were examined. Allopurinol […] xanthine oxidoreductase inhibitor.\nNone of the above subjects were taking any antihypertensive agents at the baseline (start) of the study. These […] subjects were part of two (2) double-blind (hereinafter referred to as “DB”) studies. One study was of 28 weeks in duration. During this time, the subjects received 80 mg, 120 mg or 240 mg QD of febuxostat, placebo or allopurinol 300 or 100 mg QD, depending on the subject's renal function. The second study was 52 weeks in duration. During this time, the subjects received 80 mg or 120 mg QD of febuxostat or allopurinol 300 mg QD."}, "[4]": {"conditions": "80 mg QD, after 4 weeks of treatment"}, "[5]": {"conditions": "80 mg QD, after 28 weeks of treatment"}, "[6]": {"conditions": "80 mg QD, after 52 weeks of treatment"}, "[7]": {"conditions": "120 mg QD, after 4 weeks of treatment"}, "[8]": {"conditions": "120 mg QD, after 28 weeks of treatment"}, "[9]": {"conditions": "120 mg QD, after 52 weeks of treatment"}, "[10]": {"conditions": "240 mg QD, after 4 weeks of treatment"}, "[11]": {"conditions": "240 mg QD, after 28 weeks of treatment"}}, "data": [{"smiles": "Cc1nc(-c2ccc(OCC(C)C)c(C#N)c2)sc1C(=O)O", "note": "[febuxostat, 2-[3-cyano-4-(2-methylpropoxy)phenyl]-4-methylthiazole-5-carboxylic acid]", "values": [{"measurement": "mean change from baseline for diastolic BP", "setting": "[1]; [4]", "result": "−3.1", "unit": "mmHg"}, {"measurement": "mean change from baseline for mean arterial BP", "setting": "[1]; [4]", "result": "−4.3", "unit": "mmHg"}, {"measurement": "mean change from baseline for systolic BP", "setting": "[1]; [4]", "result": "−6.7", "unit": "mmHg"}, {"measurement": "mean change from baseline for diastolic BP", "setting": "[1]; [5]", "result": "−7.3", "unit": "mmHg"}, {"measurement": "mean change from baseline for mean arterial BP", "setting": "[1]; [5]", "result": "−9.0", "unit": "mmHg"}, {"measurement": "mean change from baseline for systolic BP", "setting": "[1]; [5]", "result": "−12.6", "unit": "mmHg"}, {"measurement": "mean change from baseline for diastolic BP", "setting": "[1]; [6]", "result": "−8.4", "unit": "mmHg"}, {"measurement": "mean change from baseline for mean arterial BP", "setting": "[1]; [6]", "result": "−11.6", "unit": "mmHg"}, {"measurement": "mean change from baseline for systolic BP", "setting": "[1]; [6]", "result": "−17.9", "unit": "mmHg"}, {"measurement": "mean change from baseline for diastolic BP", "setting": "[1]; [7]", "result": "−7.5", "unit": "mmHg"}, {"measurement": "mean change from baseline for mean arterial BP", "setting": "[1]; [7]", "result": "−7.8", "unit": "mmHg"}, {"measurement": "mean change from baseline for systolic BP", "setting": "[1]; [7]", "result": "−8.5", "unit": "mmHg"}, {"measurement": "mean change from baseline for diastolic BP", "setting": "[1]; [8]", "result": "−8.5", "unit": "mmHg"}, {"measurement": "mean change from baseline for mean arterial BP", "setting": "[1]; [8]", "result": "−9.9", "unit": "mmHg"}, {"measurement": "mean change from baseline for systolic BP", "setting": "[1]; [8]", "result": "−12.8", "unit": "mmHg"}, {"measurement": "mean change from baseline for diastolic BP", "setting": "[1]; [9]", "result": "−7.4", "unit": "mmHg"}, {"measurement": "mean change from baseline for mean arterial BP", "setting": "[1]; [9]", "result": "−11.1", "unit": "mmHg"}, {"measurement": "mean change from baseline for systolic BP", "setting": "[1]; [9]", "result": "−18.6", "unit": "mmHg"}, {"measurement": "mean change from baseline for diastolic BP", "setting": "[1]; [10]", "result": "−9.1", "unit": "mmHg"}, {"measurement": "mean change from baseline for mean arterial BP", "setting": "[1]; [10]", "result": "−9.8", "unit": "mmHg"}, {"measurement": "mean change from baseline for systolic BP", "setting": "[1]; [10]", "result": "−11.3", "unit": "mmHg"}, {"measurement": "mean change from baseline for diastolic BP", "setting": "[1]; [11]", "result": "−4.9", "unit": "mmHg"}, {"measurement": "mean change from baseline for mean arterial BP", "setting": "[1]; [11]", "result": "−6.3", "unit": "mmHg"}, {"measurement": "mean change from baseline for systolic BP", "setting": "[1]; [11]", "result": "−9.2", "unit": "mmHg"}, {"measurement": "plasma uric acid levels (effect in words)", "setting": "[2]; OA-dosed rats, febuxostat added beginning at 4 weeks, FIG. 1", "result": "reduced the uric acid levels back into the normal range"}, {"measurement": "uric acid levels relative to control", "setting": "[2]; normal rats receiving febuxostat, difference not statistically significant", "result": "approximately 53 % of control values"}, {"measurement": "mean change from baseline for diastolic BP", "setting": "[3]; [4]", "result": "−3.7", "unit": "mmHg"}, {"measurement": "mean change from baseline for mean arterial BP", "setting": "[3]; [4]", "result": "−5.2", "unit": "mmHg"}, {"measurement": "mean change from baseline for systolic BP", "setting": "[3]; [4]", "result": "−8.2", "unit": "mmHg"}, {"measurement": "mean change from baseline for diastolic BP", "setting": "[3]; [5]", "result": "−10.2", "unit": "mmHg"}, {"measurement": "mean change from baseline for mean arterial BP", "setting": "[3]; [5]", "result": "−11.1", "unit": "mmHg"}, {"measurement": "mean change from baseline for systolic BP", "setting": "[3]; [5]", "result": "−13.0", "unit": "mmHg"}, {"measurement": "mean change from baseline for diastolic BP", "setting": "[3]; [6]", "result": "−12.3", "unit": "mmHg"}, {"measurement": "mean change from baseline for mean arterial BP", "setting": "[3]; [6]", "result": "−12.7", "unit": "mmHg"}, {"measurement": "mean change from baseline for systolic BP", "setting": "[3]; [6]", "result": "−13.4", "unit": "mmHg"}, {"measurement": "mean change from baseline for diastolic BP", "setting": "[3]; [7]", "result": "−8.4", "unit": "mmHg"}, {"measurement": "mean change from baseline for mean arterial BP", "setting": "[3]; [7]", "result": "−9.3", "unit": "mmHg"}, {"measurement": "mean change from baseline for systolic BP", "setting": "[3]; [7]", "result": "−11.0", "unit": "mmHg"}, {"measurement": "mean change from baseline for diastolic BP", "setting": "[3]; [8]", "result": "−6.4", "unit": "mmHg"}, {"measurement": "mean change from baseline for mean arterial BP", "setting": "[3]; [8]", "result": "−9.0", "unit": "mmHg"}, {"measurement": "mean change from baseline for systolic BP", "setting": "[3]; [8]", "result": "−14.2", "unit": "mmHg"}, {"measurement": "mean change from baseline for diastolic BP", "setting": "[3]; [9]", "result": "−10.0", "unit": "mmHg"}, {"measurement": "mean change from baseline for mean arterial BP", "setting": "[3]; [9]", "result": "−15.2", "unit": "mmHg"}, {"measurement": "mean change from baseline for systolic BP", "setting": "[3]; [9]", "result": "−25.8", "unit": "mmHg"}, {"measurement": "mean change from baseline for diastolic BP", "setting": "[3]; [10]", "result": "−8.9", "unit": "mmHg"}, {"measurement": "mean change from baseline for mean arterial BP", "setting": "[3]; [10]", "result": "−9.3", "unit": "mmHg"}, {"measurement": "mean change from baseline for systolic BP", "setting": "[3]; [10]", "result": "−10.0", "unit": "mmHg"}, {"measurement": "mean change from baseline for diastolic BP", "setting": "[3]; [11]", "result": "−5.0", "unit": "mmHg"}, {"measurement": "mean change from baseline for mean arterial BP", "setting": "[3]; [11]", "result": "−6.0", "unit": "mmHg"}, {"measurement": "mean change from baseline for systolic BP", "setting": "[3]; [11]", "result": "−8.0", "unit": "mmHg"}]}]}
